Data set [1] concerns CCl4-induced inflammation. Description: CCl4-induced inflammation in mouse liver. Format: in vivo. The note with it: CCl4-treated mice (FIG. 4C, 4D). The procedure:
Animal Care: All animal care and experimental procedures were approved by the Institutional Animal Care and Use Committee at the University of Connecticut. Shp^−/− mice were described previously. Hmgb2^−/− mice were obtained from Dr. Stella Tsirka at Stony Brook University. C57BL/6J mice were purchased from Jackson Laboratory. All mice were maintained on a 12-h light/dark cycle with free access to food and water unless otherwise indicated. For CCl4 treatment, CCl4 (Sigma) was dissolved in corn oil and administered to mice at a dose of 850 μl/kg BW by intraperitoneal injection (IP) twice a week for 6 or 10 weeks with or without ICM. Age-matched control mice were treated with a corn oil vehicle. For CCl4+ICM treatment, mice were treated with CCl4 for 2 weeks and then ICM (Department of Pharmaceutical Sciences at UConn) was dissolved in PEG (Sigma) and treated with mice (10 mg/kg) every day for 4 or 8 weeks in combination with CCl4. To induce overexpression of HMGB2 in liver, AAV8-Hmgb2 or a control AAV8-GFP was given to mice by tail vein injection at a dose of 5×10^10 GC. To knockdown HMGB2 in mouse livers, AAV-shHmgb2 or a control AAV-shGFP was delivered to mice at a dose of 2×10^10 GC by tail vein injection. One week later, mice injected with AAVs were treated with CCl4 or CCl4 +ICM as described above and sacrificed. […]

The test system of data set [2] is pAKT and pERK1/2 activation. Description: pAKT and pERK1/2 activation and HMGB2 protein in primary stellate cells. Format: cell-based, mouse. The note with it: stellate cells (FIG. 6E). As to the method:
Western Blotting: Total protein lysates were prepared from livers and cells in lysis buffer containing 50 mM Tris, pH 8.0, 1% Nonidet™ P-40, 150 mM NaCl, 0.5% sodium deoxycholate, 0.1% SDS with protease inhibitors (Thermo Fisher Scientific) and subjected to immunoblotting. Nuclear and cytoplasmic subcellular fractions were prepared using NE-PER nuclear and cytoplasmic extraction reagents (Pierce) according to the manufacturer's instructions. The blot was incubated with a primary antibody, followed by a secondary antibody conjugated to horseradish peroxidase. ECL kit (Pierce) was used to detect the reactivity. The following antibodies were obtained from Cell Signaling Technology: HMGB2, HMGB1, AKT, p-AKT, mTOR, p-mTOR, ERK1/2, pERK1/2, Raptor, Rictor, p53, p21, p-Bad, Smad4, p-Smad2/3, Lamin A/C, a-SMA, MMP2, MMP9, TIMP1, RhoA, Rho-GTP, Cdc42, Rac1/2/3. Anti-HA antibody and anti-beta actin antibody were purchased from Sigma and Santa Cruz Biotechnology, respectively.
Primary Mouse Hepatic Stellate Cells (HSCs) isolation and in vitro activation: Primary mouse HSCs were isolated from 8 to 12 weeks old wild type or Hmgb2^−/− mice, as described in the art with modifications. Briefly, mice were anesthetized with ketamine/xylazine mixture. The liver was perfused with Hank's balanced salt solution (HBSS) supplemented with 0.5 mM EGTA through the cannulated portal vein, followed by perfusion with HBSS supplemented with 0.5 mg/ml pronase (Sigma) and HBSS with 0.14 mg/ml collagenase (Sigma). The liver was dissected out from the mouse and dissociated cells were dispersed gently in HBSS. Primary HSC was isolated by three-layer discontinuous density gradient centrifugation with 25% and 50% percoll (Sigma) and plated on non-coated culture dishes in DMEM supplemented with 10% FBS, 100 IU/ml penicillin, and 100 μg/ml streptomycin. For culture-activated HSC studies, the medium of primary HSCs was replaced every day up to 7 days. For PDGF treatment, primary HSC cells were serum starved for 24 hr and then treated with PDFG for 3 or 5 days. […]

As to `CC1(C)Oc2cc(O)ccc2C2C1=CCn1c(=O)n(-c3ccccc3)c(=O)n12` (centres unmarked) [ICM, inflachromene], the inflammatory response entry in data set [1] is reported as “decrease inflammatory response”. In data set [2], the HMGB2 protein entry is given as “reduces”, the pAKR activation entry was “reduces” and the pERk1/2 activation entry is “reduces”.

As to “shHMGB2: small hairpin RNA against HMGB2 (SEQ ID NO: 8), delivered by AAV or lentivirus (CCGGGCTCAACATTAGCTTCAGTATCTCGAGATACTGAAGCTAATGTTGAGCTTTTTG)”, in data set [1], the inflammatory response entry is given as “decrease inflammatory response”.

(Values after patent publication US20180320177A1, “COMPOSITIONS AND METHODS FOR THE TREATMENT OF LIVER FIBROSIS” (UNIVERSITY OF CONNECTICUT, priority 2015, published 2018).)
